Data on 22 compounds can be found in US20240066057A1, “METHOD FOR TREATING PAIN USING VANADIUM COMPOUNDS” (HUNAN FANGSHENGTAI MEDICAL TECHNOLOGY CO., LTD, priority 2020, published 2024).

Assay [1] relates to Kunming mice with CFA-induced inflammation. As to the kind of experiment: Effective concentration and plateau experiment of vanadium compounds, tail vein injection, mouse pain model. Format: in vivo. Particulars: for Duration / Maximum analgesic intensity (mean) / Onset time: 6 samples.
For assay [2] the test system is unchanged. In words: Von Frey test (50% paw withdrawal threshold) in CFA-induced inflammatory pain mouse model. Format: in vivo. As to the method:
10 μL of complete Freund's adjuvant (CFA) was injected into the left hind foot of mice (♂ Kunming mice, 22 g to 40 g) to induce inflammation. 24 hours after the injection, a Von Frey test was performed to determine a pain threshold. That is, under the guidance of Dixon's Up-Down method, Von Frey fibers were used to induce the mechanical paw withdrawal of the mice, and data were collected and calculated to obtain their 50% paw withdrawal thresholds (paw withdrawal threshold or PWT for short, i.e. pain threshold). Mice were then divided into different groups, including a normal saline group, a positive control group, and a drug group, which were intraperitoneally injected with normal saline, an aspirin (acetylsalicylic acid, or ASA) solution and a solution of compound for testing respectively. A Von Frey test was then performed to monitor changes in pain threshold.
Mice were divided into three groups: a blank control group, an aspirin (ASA) group, and a drug group. In blank control group, the mice were given normal saline, deionized water or deionized water containing ≤5% DMSO at the same volume as that in the drug group. In ASA group, the mice were given the known analgesic drug ASA as the positive control for tested compounds. In drug group, the mice were given compounds for testing accordingly. Due attention was paid to observe whether the pain threshold rose, the period during which the rise was maintained and the magnitude of the rise, after the injection of a tested compound solution.

Where [3] appears, read: Plateau experiment, dose (vanadium) A5/G3 0.25, A1/G1/H1 0.49, A4/G2/H2 0.97, H3 1.9 mg/kg, listed as A1.
Where [4] appears, read: Example 3, intraperitoneal injection, A1 0.97 mg/kg (atomic mass of vanadium), S about 250 mg/kg.
Where [5] appears, read: intraperitoneal injection, doses as in Examples 3-9.
Where [6] appears, read: intraperitoneal injection, doses as in Examples 3-9, most of the time after onset.
The mark [7] stands for this setting: Plateau experiment, dose (vanadium) A5/G3 0.25, A1/G1/H1 0.49, A4/G2/H2 0.97, H3 1.9 mg/kg, listed as A4.
Where [8] appears, read: Plateau experiment, dose (vanadium) A5/G3 0.25, A1/G1/H1 0.49, A4/G2/H2 0.97, H3 1.9 mg/kg, listed as A5.
Where [9] appears, read: Effective concentration table, 8.2 × 10^−4 mg/kg.
Setting [10] is: Plateau experiment, dose (vanadium) A5/G3 0.25, A1/G1/H1 0.49, A4/G2/H2 0.97, H3 1.9 mg/kg, listed as G2.
[11] abbreviates: Plateau experiment, dose (vanadium) A5/G3 0.25, A1/G1/H1 0.49, A4/G2/H2 0.97, H3 1.9 mg/kg, listed as G3.
[12] abbreviates: Plateau experiment, dose (vanadium) A5/G3 0.25, A1/G1/H1 0.49, A4/G2/H2 0.97, H3 1.9 mg/kg, listed as H1.
The mark [13] stands for this setting: Example 11 (BMOV), intraperitoneal injection, H1 about 0.97 mg/kg (atomic mass of vanadium).
Where [14] appears, read: Plateau experiment, dose (vanadium) A5/G3 0.25, A1/G1/H1 0.49, A4/G2/H2 0.97, H3 1.9 mg/kg, listed as H2.
Setting [15] is: Plateau experiment, dose (vanadium) A5/G3 0.25, A1/G1/H1 0.49, A4/G2/H2 0.97, H3 1.9 mg/kg, 1.9 mg/kg.
Setting [16] is: Example 12, intraperitoneal injection, J about 0.97 mg/kg (atomic mass of vanadium).
Where [17] appears, read: Example 14, intraperitoneal injection, L about 0.97 mg/kg (atomic mass of vanadium).
Setting [18] is: Example 15, intraperitoneal injection, M about 0.97 mg/kg (atomic mass of vanadium).
Where [19] appears, read: Example 13, intraperitoneal injection, K about 0.97 mg/kg (atomic mass of vanadium).
Setting [20] is: Example 5, intraperitoneal injection, C 1.9 mg/kg (atomic mass of vanadium), S about 250 mg/kg.
Where [21] appears, read: intraperitoneal injection, conclusions of Examples 3-9.
[22] abbreviates: intraperitoneal injection, versus aspirin control group.
The mark [23] stands for this setting: Example 6, intraperitoneal injection, D 1.9 mg/kg, S about 250 mg/kg, listed as D.
[24] abbreviates: Example 11 (BEOV), intraperitoneal injection, I about 0.97 mg/kg (atomic mass of vanadium).

A value given as a limit tells only on which side of the number the result lay.

As to `[Na+].[Na+].[Na+].[O]=[V]([O-])([O-])[O-]` [Solution A1, Sodium orthovanadate], the Duration in assay [1] (setting [3]) is >60 min; in assay [2] (setting [4]), >60 min; in assay [2] (Example 4, intraperitoneal injection, A1 0.97, A2 0.19, A3 0.097 mg/kg (atomic mass of vanadium)), >60 min. Moreover, the “Maximum analgesic intensity (mean)” value in assay [1] (setting [3]) is ~0.55 g. In addition, the Onset time in assay [2] (setting [4]) lay in the range of 30 to 45 after injection min; in assay [2] (Example 4, intraperitoneal injection, A1 0.97, A2 0.19, A3 0.097 mg/kg (atomic mass of vanadium), listed as A1), 30 to 45 after injection min. Also, the “Time after injection at which the pain threshold returned to the baseline value” (shortened to “Time after injection”) in assay [2] (setting [5]) is > 90 min. The “Pain thresholds / analgesic intensity compared with the S (ASA, aspirin) group” value in assay [2] (setting [6]) is “generally higher than those of the mice in the S group”.
As to `[Na+].[Na+].[Na+].[O]=[V]([O-])([O-])[O-]` [Solution A2, Sodium orthovanadate], the Onset time in assay [2] (Example 4, intraperitoneal injection, A1 0.97, A2 0.19, A3 0.097 mg/kg (atomic mass of vanadium), listed as A2) was 30 to 45 after injection min.
Take `[Na+].[Na+].[Na+].[O]=[V]([O-])([O-])[O-]` [Solution A3, Sodium orthovanadate]: in assay [2] (Example 4, intraperitoneal injection, A1 0.97, A2 0.19, A3 0.097 mg/kg (atomic mass of vanadium), 0.097 mg/kg), the Onset time lay within 30 to 45 after injection min.
For the compound `[Na+].[Na+].[Na+].[O]=[V]([O-])([O-])[O-]` [Solution A4, Sodium orthovanadate], in assay [1] (setting [7]), the Duration is given as <60 min and the “Maximum analgesic intensity (mean)” value was ~0.30 g.
As for `[Na+].[Na+].[Na+].[O]=[V]([O-])([O-])[O-]` [Solution A5, Sodium orthovanadate], in assay [1] (setting [8]), the Duration was >60 min and the “Maximum analgesic intensity (mean)” value is ~0.45 g.
On to `[Na+].[Na+].[Na+].[O]=[V]([O-])([O-])[O-]` [Solution A6, Sodium orthovanadate], for which, in assay [1] (setting [9]), the Duration is listed as <60 min and the Onset time lay within 0 to 15 min.
Take `O=S(=O)([O-])[O-].[O]=[V+2]` [Solution G2, Vanadyl sulfate]: in assay [1] (setting [10]), the Duration result was “no obvious difference” and the “Maximum analgesic intensity (mean)” value is reported as ~0.49 g.
Take `O=S(=O)([O-])[O-].[O]=[V+2]` [Solution G3, Vanadyl sulfate]: in assay [1] (setting [11]), the Duration was >60 min and the “Maximum analgesic intensity (mean)” value is given as ~0.46 g.
As to `O=S(=O)([O-])[O-].[O]=[V+2]` [Solution G4, Vanadyl sulfate], in assay [1] (setting [9]), the Duration is <60 min and the Onset time lay within 0 to 15 min.
On to `O=S(=O)([O-])[O-].[O]=[V+2]` [Solution G, Vanadyl sulfate], for which the Minimum effective dose entry in assay [1] (mice) is reported as “about 1.0×10^−3 mg/kg”. Besides, the “Blood concentration in mice equivalent to the plateau dose” value in assay [1] (plateau dose 0.49 mg/kg) is 140 µM.
For the compound `Cc1occc(=O)c1[O-].Cc1occc(=O)c1[O-].[O]=[V+2]` [Solution H1, bis(maltolato)oxovanadium (IV)], in assay [1] (setting [12]), the Duration was ≤60 min and the “Maximum analgesic intensity (mean)” value is on record as 0.33 g. Besides, in assay [2] (setting [13]), the Duration is reported as >60 min and the Onset time is 0 to 15 after injection min.
Take `Cc1occc(=O)c1[O-].Cc1occc(=O)c1[O-].[O]=[V+2]` [Solution H2, bis(maltolato)oxovanadium (IV)]: in assay [1] (setting [14]), the Duration is given as >60 min and the “Maximum analgesic intensity (mean)” value was found to be 0.54 g.
Turning to `Cc1occc(=O)c1[O-].Cc1occc(=O)c1[O-].[O]=[V+2]` [Solution H3, bis(maltolato)oxovanadium (IV)], in assay [1] (setting [15]), the Duration is given as ≤60 min and the “Maximum analgesic intensity (mean)” value is on record as 0.48 g.
Take `Cc1occc(=O)c1[O-].Cc1occc(=O)c1[O-].[O]=[V+2]` [Solution H, bis(maltolato)oxovanadium (IV)]: the Plateau dose in assay [1] (mice, based on vanadium) was ≥ 0.97 mg/kg.
In the case of `[O]=[V-2]12([O]C3=COC(CO)=CC3=[O+]1)[O]C1=COC(CO)=CC1=[O+]2` [Solution J, bis(kojato)oxovanadium (IV)], in assay [2] (setting [16]), the Duration is given as >60 min and the Onset time was in the range of 15 to 30 after injection min.
With `O=C([O-])C(=O)[O-].[O]=[V+2]` [Solution L, Vanadyl oxalate], in assay [2] (setting [17]), the Duration is reported as >60 min and the Onset time is listed as 15 to 30 after injection min.
As to `O=C(O)c1ccccn1.O=C(O)c1ccccn1.[O]=[V]` [Solution M, Bis(picolinato)oxovanadium (IV)], in assay [2] (setting [18]), the Duration is reported as >60 min and the Onset time was 15 to 30 after injection min.
For “Bis(acetylacetonato)oxovanadium (IV) [Solution K]”, in assay [2] (setting [19]), the Duration is >60 min and the Onset time fell in the range of 15 to 30 after injection min.
As to “Cis-bis(maltolato)methoxyoxovanadium (V) [Solution C]”, in assay [2] (setting [20]), the Duration entry is “about 60 min” and the Onset time is reported as 15 to 30 after injection min. Moreover, in assay [2] (setting [21]), the Analgesic effect entry is reported as “has an analgesic effect”. The “Time after injection” value in assay [2] (setting [5]) stood at 90 min. The “Pain thresholds / analgesic intensity compared with the S (ASA, aspirin) group” value in assay [2] (setting [6]) is “comparable to those of the mice, boosted by the solution S, in the S group”. For the same compound, in assay [2] (setting [22]), the “Effective duration compared with aspirin (ASA)” value is “longer than that of aspirin”.
Regarding Sodium metavanadate [Solution D], in assay [2] (setting [23]), the Duration is given as >60 min and the Onset time lay in the range of 0 to 15 after injection min. The Duration in assay [2] (Example 6, intraperitoneal injection, D 1.9 mg/kg, S about 250 mg/kg, listed as metavanadate) is > 60 min. In addition, the Analgesic effect entry in assay [2] (setting [21]) was “has an analgesic effect”. Further, the “Time after injection” value in assay [2] (setting [5]) was ~90 min. In addition, the “Pain thresholds / analgesic intensity compared with the S (ASA, aspirin) group” value in assay [2] (setting [6]) is listed as “greater than or comparable to those of the mice, boosted by the solution S, in the S group”. In addition, the “Effective duration compared with aspirin (ASA)” value in assay [2] (setting [22]) was “longer than that of aspirin”.
As for “bis(ethylmaltolato)oxovanadium (IV) [Solution I]”, in assay [2] (setting [24]), the Duration is >60 min and the Onset time lay in the range of 15 to 30 after injection min.
As to “potassium dioxo(citrato)vanadate (V) [Solution F]”, in assay [2] (mouse, in vivo), the Duration is listed as >60 min and the Onset time lay in the range of 15 to 30 after injection min. In assay [2] (mouse, in vivo, ip), the Analgesic effect result is recorded as “has an analgesic effect”; the “Effective duration compared with aspirin (ASA)” value is “longer than that of aspirin”; the “Pain thresholds / analgesic intensity compared with the S (ASA, aspirin) group” value is on record as “higher than those of the mice, boosted by the solution S, in the S group”; the “Time after injection” value was > 90 min.
